Where “and” joins values, the source holds several entries; their conditions need not be identical. Equal values may be shown once. Read-outs that look alike come from different tables or passages of the source.
Legend:
[1] = system: M. scrofulaceum 19981; assay: Time to detection (TTD) of growth in BacT/ALERT MP culture bottles; format: cell-based, Mycobacterium scrofulaceum
[2] = system: M. avium 25291; assay: as above; format: cell-based, Mycobacterium avium; conditions: for # Positive: of 4.0 tested
[3] = system: mycobacteria; format: cell-based, Mycobacterium species
[4] = system: M. fortuitum 6841; assay: Time to detection (TTD) of growth in BacT/ALERT MP culture bottles; conditions: for # Positive / # Positives: of 4.0 tested
[5] = system: M. kansasii 12478; assay: as above; format: cell-based, Mycobacterium kansasii; conditions: for # Positive / # Positives: of 4.0 tested
[6] = system: MTB 27294; assay: as above; format: cell-based, Mycobacterium tuberculosis; conditions: for # Positive: of 4.0 tested
[7] = system: MTB 25177; assay: as above; format: cell-based, Mycobacterium tuberculosis; conditions: for # Positive: of 4.0 tested
Protocol: For Growth Performance, […] organisms (M. tuberculosis, M. avium, and M. intracellulare) were tested. The conventional MAS formulation was used for these experiments. The new supplement with/without FA supplementation and conventional/old RF were used to rehydrate a lyophilized powder of the conventional or old MB BacT antibiotic supplement (conventional/old MAS) (bioMérieux, Inc.).
For the new supplement, the new, autoclavable BacT/ALERT® MP bottle (as described hereinabove) was used and for conventional/old RF, the conventional/old MP bottle was used. Before the inoculation of new and conventional/old MP culture bottles (bioMérieux, Inc.) with mycobacteria cultures, 0.5 ml of new supplement with/without FA or 0.5 ml of conventional/old RF were added to one set of the BacT/ALERT® MP culture bottles. The rehydrated conventional MAS (using new supplement with/without FA and conventional/old RF) was added to the second set of MP culture bottles. The growth (as TTD of growth) was compared in these bottles for Mycobacterium avium, Mycobacterium intracellulare and Mycobacterium tuberculosis cultures after inoculating with approximately 0.5×10^3 CFU/ml.
For the new MAS formulas and NS, a new, autoclaved BacT/ALERT® MP bottle (as described hereinabove) was used and for conventional/old RF, conventional/old MP bottle (bioMérieux, Inc.) was used. […] The conventional MAS (using conventional/old RF) and new MAS formulas (using NS) were added to the second set of MP culture bottles.
The mycobacteria inoculum was 0.5×10^3 CFU/ml.

[8] = system: M. intracellulare 13950; assay: as above; format: cell-based, Mycobacterium intracellulare; conditions: for # Positive: of 4.0 tested
[9] = system: contaminating respiratory flora (CRF); assay: Suppression of contaminating respiratory flora (CRF), growth or no growth in BacT/ALERT MP culture bottles; format: cell-based, gram positive or gram negative bacterial and yeast cultures; conditions: screen of various drugs

## CC1(C)S[C@@H]2[C@H](NC(=O)[C@H](NC(=O)N3CCNC3=O)c3ccccc3)C(=O)N2[C@H]1C(=O)O [AZL, azlocillin]
[1]; Table 4, Media + AZL 12
  Average TTD: 24.2 days
[1]; Table 4, Media + AZL 12, of 4.0 tested
  # Positive: 2.0
[1]; Table 4, Media + AZL 48
  Average TTD: 21.7 days
[1]; Table 4, Media + AZL 48, of 3.0 tested
  # Positive: 1.0
[2]; Table 4, Media + AZL 12
  Average TTD: 20.1 days
  # Positive: 4.0
[2]; Table 4, Media + AZL 24
  Average TTD: 22.2 days
  # Positive: 4.0
[2]; Table 4, Media + AZL 48
  Average TTD: 21.2 days
  # Positive: 4.0
[3]
  effect on growth (as determined by TTD of growth): negative effect on the growth
[4]; Table 4, Media + AZL 12
  Average TTD: 4.0 days
  # Positive: 4.0
[4]; Table 4, Media + AZL 24
  Average TTD: 4.2 days
  # Positive: 4.0
[4]; Table 4, Media + AZL 48
  Average TTD: 4.1 days
  # Positive: 4.0
[5]; Table 4, Media + AZL 12
  Average TTD: 18.5 days
  # Positive: 3.0
[5]; Table 4, Media + AZL 24
  Average TTD: 18.9 days
  # Positive: 4.0
[5]; Table 4, Media + AZL 48
  Average TTD: 20.5 days
  # Positive: 1.0
[6]; Table 4, Media + AZL 12
  Average TTD: 15.4 days
  # Positive: 4.0
[6]; Table 4, Media + AZL 24
  Average TTD: 16.0 days
  # Positive: 4.0
[6]; Table 4, Media + AZL 48
  Average TTD: 15.4 days
  # Positive: 4.0
[7]; Table 4, Media + AZL 12
  Average TTD: 22.4 days
  # Positive: 4.0
[7]; Table 4, Media + AZL 24
  Average TTD: 23.8 days
  # Positive: 2.0
[7]; Table 4, Media + AZL 48
  Average TTD: 24.8 days
  # Positive: 2.0
[8]; Table 4, Media + AZL 12
  Average TTD: 16.4 days
  # Positive: 4.0
[8]; Table 4, Media + AZL 24
  Average TTD: 19.8 days
  # Positive: 4.0
[8]; Table 4, Media + AZL 48
  Average TTD: 20.0 days
  # Positive: 2.0

## N=C(N)NCCC[C@H](N)C(=O)O [L-arginine]
[3]
  reduction in TTD: did not show a reduction in TTD

## O=C(O)C[C@H](O)C(=O)O [L-malate]
[3]
  reduction in TTD: did not show a reduction in TTD

## CN[C@H](CC(C)C)C(=O)N[C@H]1C(=O)N[C@@H](CC(N)=O)C(=O)N[C@H]2C(=O)N[C@H]3C(=O)N[C@H](C(=O)N[C@H](C(=O)O)c4cc(O)cc(O)c4-c4cc3ccc4O)[C@H](O)c3ccc(c(Cl)c3)Oc3cc2cc(c3O[C@@H]2O[C@H](CO)[C@@H](O)[C@H](O)[C@H]2O[C@H]2C[C@](C)(N)[C@H](O)[C@H](C)O2)Oc2ccc(cc2Cl)[C@H]1O [VAN, vancomycin]
[1]; Table 5, Media + VAN 1.75
  Average TTD: 14.2 days
[1]; Table 5, Media + VAN 1.75, of 4.0 tested
  # Positives: 4.0
[1]; Table 5, Media + VAN 3.5
  Average TTD: 14.0 days
[1]; Table 5, Media + VAN 3.5, of 4.0 tested
  # Positives: 4.0
[1]; Table 5, Media + VAN 7
  Average TTD: 15.3 days
[1]; Table 5, Media + VAN 7, of 1.0 tested
  # Positives: 1.0
[2]
  # Positives: 4.0 and 3.0
  Average TTD: 20.6 days and 21.2 days
[3]
  effect on growth (as determined by TTD of growth): negative effect on the growth
[4]; Table 5, Media + VAN 1.75
  Average TTD: 4.7 days
  # Positives: 4.0
[4]; Table 5, Media + VAN 3.5
  Average TTD: 4.1 days
  # Positives: 4.0
[4]; Table 5, Media + VAN 7
  Average TTD: 4.8 days
  # Positives: 4.0
[5]; Table 5, Media + VAN 1.75
  # Positives: 4.0
[5]; Table 5, Media + VAN 3.5
  Average TTD: 21.5 days
  # Positives: 2.0
[6]
  # Positives: 4.0
  Average TTD: 16.3 days and 16.0 days and 18.3 days
[7]
  # Positives: 2.0
  Average TTD: 23.7 days
[8]
  # Positives: 4.0
  Average TTD: 9.4 days and 9.7 days and 10.3 days

## C[C@@H]1O[C@@H]1P(=O)(O)O [fosfomycin]
[9]
  ability to suppress contaminating respiratory flora (CRF): best choice for suppression of CRF

## CC(O)C(=O)O (centres unmarked) [lactate]
[3]
  reduction in TTD: did not show a reduction in TTD

## O=C(O)CC(=O)C(=O)O [oxaloacetic acid]
[3]
  reduction in TTD: did not show a reduction in TTD

## O=C(O)CCC(=O)C(=O)O [α-keto glutarate, α-ketoglutarate]
[2]
  Avg. TTD: 13.5 days and 13.8 days
  No. of positives: 3
[3]
  reduction in time to detection (TTD) of growth: approximate two days reduction
[6]
  Avg. TTD: 14.3 days and 13.9 days
  No. of positives: 3
[8]
  Avg. TTD: 9.0 days and 8.8 days
  No. of positives: 3

Source: patent publication US8389268B2, “Method and culture medium for enhanced detection of mycobacterium” (priority 2009, dated 2013)
